Patent US10798941B2, “Microbiocidal oxadiazole derivatives” (SYNGENTA PARTICIPATIONS AG, priority 2016, dated 2020)

Test system: Glomerella Lagenarium (Colletotrichum Lagenarium)
Assay: Glomerella lagenarium (Colletotrichum lagenarium) liquid culture / cucumber / preventative (anthracnose)
Assay type: cell-based
Conditions: Colletotrichum orbiculare; 20 ppm in the applied formulation; liquid culture in PDB, 24° C., inhibition of growth measured photometrically 3 to 4 days after application, vs untreated; read-out: disease control
Protocol: Mycelia fragments or conidia suspensions of a fungus prepared either freshly from liquid cultures of the fungus or from cryogenic storage, are directly mixed into nutrient broth. DMSO solutions of the test compound (max. 10 mg/ml) are diluted with 0.025% Tween20 by a factor of 50 and 10 μl of this solution is pipetted into a microtiter plate (96-well format). The nutrient broth containing the fungal spores/mycelia fragments is then added to give an end concentration of the tested compound. The test plates are incubated in the dark at 24° C. and 96% relative humidity. The inhibition of fungal growth is determined photometrically after 2 to 7 days, depending on the pathosystem, and percent antifungal activity relative to the untreated check is calculated.
Conidia of the fungus from cryogenic storage are directly mixed into nutrient broth (PDB—potato dextrose broth). After placing a (DMSO) solution of test compound into a microtiter plate (96-well format), the nutrient broth containing the fungal spores is added.
The following compounds at 20 ppm in the applied formulation give at least 80% disease control in this test when compared to untreated control under the same conditions, which show extensive disease development.

| SMILES | inhibition of growth at 20 ppm [%] |
| --- | --- |
| Cc1nn(Cc2ccc(-c3noc(C(F)(F)F)n3)cc2F)c(C)c1Cl [Compound 1.127, 3-[4-[(4-chloro-3,5-dimethyl-pyrazol-1-yl)methyl]-3-fluoro-phenyl]-5-(trifluoromethyl)-1,2,4-oxadiazole] | ≥ 80 |
| FC(F)(F)c1nc(-c2ccc(Cn3cncn3)c(C(F)(F)F)c2)no1 [Compound 1.98, 3-[4-(1,2,4-triazol-1-ylmethyl)-3-(trifluoromethyl)phenyl]-5-(trifluoromethyl)-1,2,4-oxadiazole] | ≥ 80 |
| Cc1cc(C)n(Cc2ccc(-c3noc(C(F)(F)F)n3)cc2Cl)n1 [Compound 1.100, 3-[3-chloro-4-[(3,5-dimethylpyrazol-1-yl)methyl]phenyl]-5-(trifluoromethyl)-1,2,4-oxadiazole] | ≥ 80 |
| CCOC(=O)c1c(-c2ccccc2)ncn1Cc1ccc(-c2noc(C(F)(F)F)n2)cc1 [Compound 1.189, ethyl 5-phenyl-3-[[4-[5-(trifluoromethyl)-1,2,4-oxadiazol-3-yl]phenyl]methyl]imidazole-4-carboxylate] | ≥ 80 |
| CCOC(=O)c1nn(Cc2ccc(-c3noc(C(F)(F)F)n3)cc2)cc1-c1ccccc1 [Compound 1.84, ethyl 4-phenyl-1-[[4-[5-(trifluoromethyl) 1,2,4-oxadiazol-3-yl]phenyl]methyl]pyrazole-3-carboxylate] | ≥ 80 |
| COC(=O)c1ncn(Cc2ccc(-c3noc(C(F)(F)F)n3)cc2Cl)c1C(=O)OC [Compound 1.104, dimethyl 1-[[2-chloro-4-[5-(trifluoromethyl)-1,2,4-oxadiazol-3-yl]phenyl]methyl]imidazole-4,5-dicarboxylate] | ≥ 80 |
| COC(=O)c1cccc2c1ccn2Cc1ccc(-c2noc(C(F)(F)F)n2)cc1 [Compound 1.66, methyl 1-[[4-[5-(trifluoromethyl)-1,2,4-oxadiazol-3-yl]phenyl]methyl]indole-4-carboxylate] | ≥ 80 |
| FC(F)(F)c1nc(-c2ccc(Cn3ccc4ccc(Cl)cc43)cc2)no1 [Compound 1.64, 3-[4-[(6-chloroindol-1-yl)methyl]phenyl]-5-(trifluoromethyl)-1,2,4-oxadiazole] | ≥ 80 |
| COc1cc(-c2noc(C(F)(F)F)n2)ccc1Cn1cncc1Br [Compound 1.116, 3-[4-[(5-bromoimidazol-1-yl)methyl]-3-methoxy-phenyl]-5-(trifluoromethyl)-1,2,4-oxadiazole] | ≥ 80 |
| Cc1cc(C)n(Cc2ccc(-c3noc(C(F)(F)F)n3)nc2)n1 [Compound 1.284, 3-[5-[(3,5-dimethylpyrazol-1-yl)methyl]-2-pyridyl]-5-(trifluoromethyl)-1,2,4-oxadiazole] | ≥ 80 |
| FC(F)(F)c1nc(-c2ccc(Cn3nnnc3-c3ccc(Cl)cc3)c(Cl)c2)no1 [Compound 1.113, 3-[3-chloro-4-[[5-(4-chlorophenyl)tetrazol-1-yl]methyl]phenyl]-5-(trifluoromethyl)-1,2,4-oxadiazole] | ≥ 80 |
| FC(F)(F)c1nc(-c2ccc(Cn3c(Br)nc(Br)c3Br)cc2)no1 [Compound 1.69, 3-[4-[(2,4,5-tribromoimidazol-1-yl)methyl]phenyl]-5-(trifluoromethyl)-1,2,4-oxadiazole] | ≥ 80 |
| FC(F)(F)c1nc(-c2ccc(Cn3cnc4ccccc43)c(Cl)c2)no1 [Compound 1.110, 3-[4-(benzimidazol-1-ylmethyl)-3-chloro-phenyl]-5-(trifluoromethyl)-1,2,4-oxadiazole] | ≥ 80 |
| Fc1cc2ncn(Cc3ccc(-c4noc(C(F)(F)F)n4)cc3)c2cc1Cl [Compound 1.92, 3-[4-[(6-chloro-5-fluoro-benzimidazol-1-yl)methyl]phenyl]-5-(trifluoromethyl)-1,2,4-oxadiazole] | ≥ 80 |
| CCOC(=O)c1ncn(Cc2ccc(-c3noc(C(F)(F)F)n3)cc2)c1-c1ccccc1 [Compound 1.188, ethyl 5-phenyl-1-[[4-[5-(trifluoromethyl)-1,2,4-oxadiazol-3-yl]phenyl]methyl]imidazole-4-carboxylate] | ≥ 80 |
| COC(=O)c1cc(C(F)(F)F)n(Cc2ccc(-c3noc(C(F)(F)F)n3)cc2)c1C [Compound 1.68, methyl 2-methyl-5-(trifluoromethyl)-1-[[4-[5-(trifluoromethyl)-1,2,4-oxadiazol-3-yl]phenyl]methyl]pyrrole-3-carboxylate] | ≥ 80 |
| Cc1nc2cc(C(F)(F)F)ccc2n1Cc1ccc(-c2noc(C(F)(F)F)n2)cc1 [Compound 1.191, 3-[4-[[2-methyl-5-(trifluoromethyl)benzimidazol-1-yl]methyl]phenyl]-5-(trifluoromethyl)-1,2,4-oxadiazole] | ≥ 80 |
| C[C@@H]1CN(Cc2ccc(-c3noc(C(F)(F)F)n3)cc2)C[C@H](C)O1 [Compound 1.307, (2R,6S)-2,6-dimethyl-4-[[4-[5-(trifluoromethyl)-1,2,4-oxadiazol-3-yl]phenyl]methyl]morpholine] | ≥ 80 |
| FC(F)(F)c1nc(-c2ccc(Cn3c(Br)nc(Cl)c3Cl)cc2)no1 [Compound 1.72, 3-[4-[(2-bromo-4,5-dichloro-imidazol-1-yl)methyl]phenyl]-5-(trifluoromethyl)-1,2,4-oxadiazole] | ≥ 80 |
| FC(F)(F)c1nc(-c2ccc(Cn3cc(I)cn3)c(Cl)c2)no1 [Compound 1.114, 3-[3-chloro-4-[(4-iodopyrazol-1-yl)methyl]phenyl]-5-(trifluoromethyl)-1,2,4-oxadiazole] | ≥ 80 |
| COC(=O)c1ncn(Cc2ccc(-c3noc(C(F)(F)F)n3)cn2)n1 [Compound 1.138, methyl 1-[[5-[5-(trifluoromethyl)-1,2,4-oxadiazol-3-yl]-2-pyridyl]methyl]-1,2,4-triazole-3-carboxylate] | ≥ 80 |
| Cc1ccc2c(C=O)cn(Cc3ccc(-c4noc(C(F)(F)F)n4)cc3)c2c1 [Compound 1.51, 6-methyl-1-[[4-[5-(trifluoromethyl)-1,2,4-oxadiazol-3-yl]phenyl]methyl]indole-3-carbaldehyde] | ≥ 80 |
| FC(F)(F)c1nc(-c2ccc(Cn3cc(Cl)cn3)c(Cl)c2)no1 [Compound 1.111, 3-[3-chloro-4-[(4-chloropyrazol-1-yl)methyl]phenyl]-5-(trifluoromethyl)-1,2,4-oxadiazole] | ≥ 80 |
| Cc1c(C=O)c2ccccc2n1Cc1ccc(-c2noc(C(F)(F)F)n2)cc1 [Compound 1.70, 2-methyl-1-[[4-[5-(trifluoromethyl)-1,2,4-oxadiazol-3-yl]phenyl]methyl]indole-3-carbaldehyde] | ≥ 80 |
| Cc1cc(C)n(CCc2ccc(-c3noc(C(F)(F)F)n3)cc2)n1 [Compound 1.309, 3-[4-[2-(3,5-dimethylpyrazol-1-yl)ethyl]phenyl]-5-(trifluoromethyl)-1,2,4-oxadiazole] | ≥ 80 |
| COc1cc(-c2noc(C(F)(F)F)n2)ccc1Cn1cnc(Br)c1 [Compound 1.117, 3-[4-[(4-bromoimidazol-1-yl)methyl]-3-methoxy-phenyl]-5-(trifluoromethyl)-1,2,4-oxadiazole] | ≥ 80 |
